From US12049439B2 (OrsoBio, Inc., priority 2018, dated 2024)

Tested on: PC-3 cells
Assay: PC-3 Oxygen Rate Consumption (OCR) Assay
Type: cell-based
Conditions: Homo sapiens, 0.05 h, medium with 2% FBS, OCR at 3-min post-injection normalized to % increase over DMSO-treated cells, concentration for half-maximal OCR increase, read-out: EC50-PC3-OCR-FBS-3min
Summary of the method: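 PC-3 cells seeded a day before, equilibrated 1 h in XF medium with 10 mM glucose, 1 mM pyruvate, 2% FBS, non-CO2 at 37 °C. Compound injected after basal OCR reads; OCR at 3 min post-injection normalized as % increase over DMSO, EC50 = half-maximal increase; six replicates.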

SMILES	EC50 [µM]
O=C(NC12CCC(C(F)(F)F)(CC1)CC2)c1cc(OC(F)(F)F)ccc1NS(=O)(=O)C1CCS(=O)(=O)CC1 [Example 210, 2-((1,1-dioxidotetrahydro-2H-thiopyran)-4-sulfonamido)-5-(trifluoromethoxy)-N-(4-(trifluoromethyl)bicyclo[2.2.2]octan-1-yl)benzamide]	4.35
CC(C)(C)S(=O)(=O)Nc1ccc(C(F)(F)F)cc1C(=O)NC12CCC(O)(CC1)CC2 [Example 171, 2-((1,1-dimethylethyl)sulfonamido)-N-(4-hydroxybicyclo[2.2.2]octan-1-yl)-5-(trifluoromethyl)benzamide]	112
CC(C)(C)c1ccc(S(=O)(=O)Nc2cc(C(F)(F)F)ccc2C(=O)NC23CC(C(F)(F)F)(C2)C3)cc1 [Example 4, 2-((4-(tert-butyl)phenyl)sulfonamido)-4-(trifluoromethyl)-N-(3-(trifluoromethyl)bicyclo[1.1.1]pentan-1-yl)benzamide]	0.619
CSCCOc1ccc(S(=O)(=O)Nc2cc(C(F)(F)F)ccc2C(=O)NC23CC(C(F)(F)F)(C2)C3)cc1 [Example 113, 2-((4-(2-(methylthio)ethoxy)phenyl)sulfonamido)-4-(trifluoromethyl)-N-(3-(trifluoromethyl)bicyclo[1.1.1]pentan-1-yl)benzamide]	0.697
CS(=O)(=O)Nc1cc(SC(F)(F)F)ccc1C(=O)NC12CCC(C#N)(CC1)CC2 [Example 202, N-(4-cyanobicyclo[2.2.2]octan-1-yl)-2-(methylsulfonamido)-4-((trifluoromethyl)thio)benzamide]	9.32
CS(=O)(=O)Nc1cc(F)ccc1C(=O)NC12CCC(F)(CC1)CC2 [Example 199, 4-fluoro-N-(4-fluorobicyclo[2.2.2]octan-1-yl)-2-(methylsulfonamido)benzamide]	≥ 100
CS(=O)(=O)Nc1cc(S(F)(F)(F)(F)F)ccc1C(=O)NC12CC(C(F)(F)F)(C1)C2 [Example 146, 2-(methylsulfonamido)-4-(pentafluoro-λ^6-sulfanyl)-N-(3-(trifluoromethyl)bicyclo[1.1.1]pentan-1-yl)benzamide]	0.677
CS(=O)(=O)c1ccc(S(=O)(=O)Nc2ccc(C(F)(F)F)cc2C(=O)NC23CC(c4ccccc4)(C2)C3)cc1 [Example 87, 2-((4-(methylsulfonyl)phenyl)sulfonamido)-N-(3-phenylbicyclo[1.1.1]pentan-1-yl)-5-(trifluoromethyl)benzamide]	3.28
N#CC1CC2(C1)CN(S(=O)(=O)Nc1cc(F)c(F)cc1C(=O)NC13CC(C(F)(F)F)(C1)C3)C2 [Example 232, 2-((6-cyano-2-azaspiro[3.3]heptane)-2-sulfonamido)-4,5-difluoro-N-(3-(trifluoromethyl)bicyclo[1.1.1]pentan-1-yl)benzamide]	5.58
CS(=O)(=O)Nc1cc(Br)ccc1C(=O)NC12CCC(C#N)(CC1)CC2 [Example 194, 4-bromo-N-(4-cyanobicyclo[2.2.2]octan-1-yl)-2-(methylsulfonamido)benzamide]	≥ 50
CS(=O)(=O)Nc1ccc(C(F)(F)F)cc1C(=O)NC12CCC(C(F)F)(CC1)CC2 [Example 81, N-(4-(difluoromethyl)bicyclo[2.2.2]octan-1-yl)-2-(methylsulfonamido)-5-(trifluoromethyl)benzamide]	2.39
CC(C)S(=O)(=O)Nc1cc(C(F)(F)F)ccc1C(=O)NC12CCC(C#N)(CC1)CC2 [Example 57, N-(4-cyanobicyclo[2.2.2]octan-1-yl)-2-((1-methylethyl)sulfonamido)-4-(trifluoromethyl)benzamide]	8.09
CS(=O)(=O)c1ccc(S(=O)(=O)Nc2ccc(C(F)(F)F)cc2C(=O)NC23CCC(C#N)(CC2)CC3)cc1 [Example 118, N-(4-cyanobicyclo[2.2.2]octan-1-yl)-2-((4-(methylsulfonyl)phenyl)sulfonamido)-5-(trifluoromethyl)benzamide]	49.2
CS(=O)(=O)Nc1c(C(=O)NC23CCC(C#N)(CC2)CC3)ccc2ccccc12 [Example 219, N-(4-cyanobicyclo[2.2.2]octan-1-yl)-1-(methylsulfonamido)-2-naphthamide]	≥ 200
CC(C)(C)P(=O)(c1ccc(S(=O)(=O)Nc2cc(C(F)(F)F)ccc2C(=O)NC23CCC(C#N)(CC2)CC3)cc1)C(C)(C)C [Example 186, N-(4-cyanobicyclo[2.2.2]octan-1-yl)-2-((4-(di-tert-butylphosphoryl)phenyl)sulfonamido)-4-(trifluoromethyl)benzamide]	12.6
CCS(=O)(=O)c1ccc(S(=O)(=O)Nc2cc(C(F)(F)F)ccc2C(=O)NC23CC(C#N)(C2)C3)cc1 [Example 25, N-(3-cyanobicyclo[1.1.1]pentan-1-yl)-2-((4-(ethylsulfonyl)phenyl)sulfonamido)-4-(trifluoromethyl)benzamide]	≥ 50
O=C(NC12CC(C1)C2)c1ccc(C(F)(F)F)cc1NS(=O)(=O)c1ccccc1 [Example 37, N-(bicyclo[1.1.1]pentan-1-yl)-2-(phenylsulfonamido)-4-(trifluoromethyl)benzamide]	2.1

SMILES	EC50 [µM]
N#Cc1ccc(NS(=O)(=O)N2CCC2)c(C(=O)NC23CCC(C#N)(CC2)CC3)c1 [Example 132, 2-(azetidine-1-sulfonamido)-5-cyano-N-(4-cyanobicyclo[2.2.2]octan-1-yl)benzamide]	50.9
CS(=O)(=O)c1ccc(S(=O)(=O)Nc2cc(F)ccc2C(=O)NC23CC(F)(C2)C3)cc1 [Example 21, 4-fluoro-N-(3-fluorobicyclo[1.1.1]pentan-1-yl)-2-((4-(methylsulfonyl)phenyl)sulfonamido)benzamide]	38.9
CC(C)(C)[S+]([O-])Nc1ccc(C(F)(F)F)cc1C(=O)NC12CC(C(F)(F)F)(C1)C2 (stereo not shown) [Example 192, 2-((tert-butylsulfinyl)amino)-5-(trifluoromethyl)-N-(3-(trifluoromethyl)bicyclo[1.1.1]pentan-1-yl)benzamide]	14.7
CS(=O)(=O)c1ccc(S(=O)(=O)Nc2cc(F)ccc2C(=O)NC23CC(C(F)(F)F)(C2)C3)cc1 [Example 5, 4-fluoro-2-((4-(methylsulfonyl)phenyl)sulfonamido)-N-(3-(trifluoromethyl)bicyclo[1.1.1]pentan-1-yl)benzamide]	5.8
CS(=O)(=O)Nc1ccc(C(F)(F)F)cc1C(=O)NC12CCC(C#N)(CC1)CC2 [Example 105, N-(4-cyanobicyclo[2.2.2]octan-1-yl)-2-(methylsulfonamido)-5-(trifluoromethyl)benzamide]	22.9
CS(=O)(=O)Nc1cc(F)ccc1C(=O)NC12CC(C1)C2 [Example 137, N-(bicyclo[1.1.1]pentan-1-yl)-4-fluoro-2-(methylsulfonamido)benzamide]	≥ 100
O=C(NC12CC(c3ccccc3)(C1)C2)c1ccc(C(F)(F)F)cc1NS(=O)(=O)c1ccc(-n2cnnn2)cc1 [Example 43, 2-((4-(1H-tetrazol-1-yl)phenyl)sulfonamido)-N-(3-phenylbicyclo[1.1.1]pentan-1-yl)-4-(trifluoromethyl)benzamide]	2.99
CC(C)S(=O)(=O)Nc1cc(C(F)(F)F)ccc1C(=O)NC12CC(C(F)(F)F)(C1)C2 [Example 56, 2-((1-methylethyl)sulfonamido)-4-(trifluoromethyl)-N-(3-(trifluoromethyl)bicyclo[1.1.1]pentan-1-yl)benzamide]	0.825
CC(C)(C)S(=O)(=O)Nc1ccc(Br)cc1C(=O)NC12CC(c3ccccc3)(C1)C2 [Example 94, 5-bromo-2-((1,1-dimethylethyl)sulfonamido)-N-(3-phenylbicyclo[1.1.1]pentan-1-yl)benzamide]	6.16
CS(=O)(=O)Nc1cc(F)ccc1C(=O)NC12CC(Cl)(C1)C2 [Example 79, N-(3-chlorobicyclo[1.1.1]pentan-1-yl)-4-fluoro-2-(methylsulfonamido)benzamide]	21.2
CN(C)S(=O)(=O)c1ccc(S(=O)(=O)Nc2cc(C(F)(F)F)ccc2C(=O)NC23CC(c4ccccc4)(C2)C3)cc1 [Example 30, 2-((4-(N,N-dimethylsulfamoyl)phenyl)sulfonamido)-N-(3-phenylbicyclo[1.1.1]pentan-1-yl)-4-(trifluoromethyl)benzamide]	1.11
CS(=O)(=O)Nc1ccc(Cl)cc1C(=O)NC12CCC(C#N)(CC1)CC2 [Example 213, 5-chloro-N-(4-cyanobicyclo[2.2.2]octan-1-yl)-2-(methylsulfonamido)benzamide]	81.9
NC(=O)c1ccc(S(=O)(=O)Nc2cc(C(F)(F)F)ccc2C(=O)NC23CC(C2)C3)cc1 [Example 52, N-(bicyclo[1.1.1]pentan-1-yl)-2-((4-carbamoylphenyl)sulfonamido)-4-(trifluoromethyl)benzamide]	200
CN(C)S(=O)(=O)Nc1cc(F)ccc1C(=O)NC12CC(C(F)(F)F)(C1)C2 [Example 188, 2-((N,N-dimethylsulfamoyl)amino)-4-fluoro-N-(3-(trifluoromethyl)bicyclo[1.1.1]pentan-1-yl)benzamide]	3.29
N#CC1CCN(S(=O)(=O)Nc2ccc(C(F)(F)F)cc2C(=O)NC23CCC(C#N)(CC2)CC3)CC1 [Example 233, N-(4-cyanobicyclo[2.2.2]octan-1-yl)-2-((4-cyanopiperidine)-1-sulfonamido)-5-(trifluoromethyl)benzamide]	4.79
O=C(NC12CC(C(F)(F)F)(C1)C2)c1ccc(C(F)(F)F)cc1NS(=O)(=O)c1ccccc1 [Example 38, 2-(phenylsulfonamido)-4-(trifluoromethyl)-N-(3-(trifluoromethyl)bicyclo[1.1.1]pentan-1-yl)benzamide]	0.478

Same assay, conditions: medium with 2% FBS, OCR at 3-min post-injection normalized to % increase over DMSO-treated cells, concentration for half-maximal OCR increase, read-out: EC50-PC3-OCR-FBS-3min

SMILES	EC50 [µM]
N#CC1(S(=O)(=O)Nc2ccc(C(F)(F)F)cc2C(=O)NC23CC(C(F)(F)F)(C2)C3)CC1 [Example 108, 2-((1-cyanocyclopropane)-1-sulfonamido)-5-(trifluoromethyl)-N-(3-(trifluoromethyl)bicyclo[1.1.1]pentan-1-yl)benzamide]	8.44
